Target: T1, human GnRH receptors (Homo sapiens, UniProt P30968)
T1 construct: expressed in transfected cells; host or cells: HEK 293
T1 sequence (P30968 1-328): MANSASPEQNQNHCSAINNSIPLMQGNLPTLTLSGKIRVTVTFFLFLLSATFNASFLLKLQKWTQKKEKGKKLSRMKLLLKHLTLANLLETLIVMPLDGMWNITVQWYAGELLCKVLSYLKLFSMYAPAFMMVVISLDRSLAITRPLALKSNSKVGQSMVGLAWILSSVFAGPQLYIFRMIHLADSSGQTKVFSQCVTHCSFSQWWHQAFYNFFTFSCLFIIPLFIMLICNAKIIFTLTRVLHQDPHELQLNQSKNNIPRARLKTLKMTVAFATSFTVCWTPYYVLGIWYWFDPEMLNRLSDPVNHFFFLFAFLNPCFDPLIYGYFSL
Assay: Radioligand binding assay: inhibition of binding of 125I-GnRH-A to GnRH receptors (membranes)
Conditions: Human GnRH receptor; competition with 125I-GnRH-A; Ki calculated from IC50 (Cheng et al.)
Procedure: HEK 293 cells stably transfected with mouse or human GnRH receptors as described above are grown in Dulbecco's high-glucose, modified Eagle's medium (DMEM) supplemented with 0.2% G418, 10% fetal bovine serum (FBS) and 100U/mL penicillin/streptomycin. GH3 cells stably transfected with the rat GnRH receptor (GGH3) were provided by Dr. William Chin (Harvard Medical School, Boston, Mass.). These cells are extensively characterized previously (Kaiser et al., 1997). The cells are grown in low glucose DMEM containing: 100U/mL penicillin/streptomycin, 0.6% G418 and 10% heat-inactivated FBS.
HEK 293 cells containing mouse or human receptors, or rat pituitaries (Pel Freez Biologicals, Rogers, Ark.) are homogenized in buffer A containing: 50 mM Tris (pH 7.4), 0.32 M sucrose, 2 mM EGTA, 1 mM PMSF, 5 μg/ml aprotinen, 5 μg/ml Pepstatin A, and 1 μg/ml leupeptin. Homogenized cells are centrifuged at 4° C. at 20,000×g for 25 minutes, re-suspended in buffer A and re-centrifuged at 4° C. at 20,000×g for an additional 25 minutes. Total membrane protein was determined with a BCA kit (Pierce, Rockford, Ill.). Membranes are stored at −70° C. at a final membrane protein concentration of approximately 5 mg/ml.
The radioiodinated agonist analog of GnRH, [des-Gly^10, D-Ala^6]GnRH ethylamide (^125I-GnRH-A), is used as the radioligand. One μg of GnRH-A diluted in 0.5 M phosphate buffer (pH 7.4) is added to an lodogen®-coated borosilicate glass tube (Pierce, Rockford, Ill.) containing 35 μl of 0.05 M phosphate buffer (pH 7.4-7.6) and 1 mCi of Na[^125I]. The reaction mixture is vortexed and incubated for 1 minute at room temperature. After one minute, the mixture is vortexed and allowed to incubate for an additional minute. 2 ml of 0.5 M acetic acid/1% BSA is added to the reaction tube and the mixture is added to a C18 Sep-Pak cartridge. The cartridge is washed with subsequent washes of 5 ml H2O and 5 ml 0.5 M acetic acid and then eluted with 5×1 ml of 60%CH3CN/40% 0.5 M acetic acid. The eluate is diluted with 3× volume of HPLC buffer A (0.1% TFA in H2O) and loaded onto a C18 column. The iodinated product is eluted over 20-25 min with a gradient of 25-100% CH3CN containing 0.1% TFA. The radioactive fractions (750 μl/fraction) are collected into clean polypropylene tubes containing 100 μl of 10% BSA. Fractions are assessed for biological activity by radiolig and binding. Specific activity of the radioligand was approximately 2200 Ci/mmol.
Membranes are diluted to 0.01-0.5 mg/ml (depending upon the species of receptor) with assay buffer containing 50 mM HEPES (pH 7.4), 1 mM EDTA, 2.5 mM MgCl2, and 0.1% BSA. Membranes (diluted to utilize similar receptor numbers between assays) are incubated with approximately 0.04-0.06 nM ^125I-GnRH-A in the presence or absence of competing agents (0.1-10,000 nM) in a total volume of 200 μl in 96-well polypropylene plates for 1 hour at room temperature. Assays are stopped by rapid filtration onto 96-well GF/C filters soaked in 0.1% polyethylenimine (PEI) utilizing a Packard 96-well cell harvester. Filters are washed three times with ice-cold PBS (50 mM NaPO4, 0.9% NaCl, 2 mM MgCl2, and 0.02% NaN3, pH 7.4). 35 μl of scintillation cocktail is added to each filter well and filters are counted on a Packard Topcount. Control dose-response curves are generated to GnRH (0.1 nM-100 nM) in each competition binding experiment. Ki values were calculated from IC50 values according to Cheng et al., Biochemical Pharmacol. 22: 3099-3108, 1973. [formula]

Row | Ki | SMILES
1 | 1840 nM | COc1cc(OC)c(CNNC(=O)c2ccc(Cc3cc4c(cc3C)C(C)(C)CCC4(C)C)o2)c(OC)c1 [Example A1, 5-[(3,5,5,8,8-Pentamethyl-5,6,7,8-tetrahydro-2-naphthalenyl)methyl]-N′-(2,4,6-trimethoxybenzyl)-2-furohydrazide]
2 | 700 nM | COc1cccc(OC)c1CNNC(=O)c1ccc(Cc2cc3c(cc2C)C(C)(C)CCC3(C)C)o1 [Example A2]
3 | 310 nM | Cc1cc(C)cc(NNC(=O)c2ccc(Cc3cc4c(cc3C)C(C)(C)CCC4(C)C)o2)c1 [Example B2, N′-(3,5-dimethylphenyl)-5-[(3,5,5,8,8-pentamethyl-5,6,7,8-tetrahydro-2-naphthalenyl)methyl]-2furohydrazide]
4 | 300 nM | Cc1cc(NNC(=O)c2ccc(Cc3cc4c(cc3C(C)C)C(C)(C)CCC4(C)C)o2)nc2c1c(C)nn2C [Example C3, 5-[(3-lsopropyl-5,5,8,8-tetramethyl-5,6,7,8-tetrahydro-2-naphthalenyl)methyl]-N′-(1,3,4-trimethyl-1H-pyrazolo[3,4-b]pyridin-6-yl)-2-furohydrazide]
5 | 1740 nM | COc1cc2c(cc1Cc1ccc(C(=O)NNc3nccc(NCC4CCCO4)n3)o1)C(C)(C)CCC2(C)C (stereo not shown) [Example C7]
6 | 410 nM | Cc1cc2c(cc1Cc1ccc(C(=O)NNc3c(Cl)cncc3Cl)o1)C(C)(C)CCC2(C)C [Example C8, N′-(3,5-dichloro-4-pyridinyl)-5-[(3,5,5,8,8-pentamethyl-5,6,7,8-tetrahydro-2-naphthalenyl)methyl]-2-furohydrazide]
7 | 350 nM | Cc1cc2c(cc1Cc1ccc(C(=O)NNc3ccccn3)o1)C(C)(C)CCC2(C)C [Example C10, 5-[(3,5,5,8,8-Pentamethyl-5,6,7,8-tetrahydro-2-napthalenyl)methyl]-N′-(2-pyridinyl)-2-furohydrazide]
8 | 390 nM | Cc1cc2c(cc1Cc1ccc(C(=O)NNc3ccc(C(F)(F)F)cn3)o1)C(C)(C)OC2(C)C [Example E5, 5-(1,1,3,3,6-Pentamethyl-1,3-dihydro-isobenzofuran-5-ylmethyl)-furan-2-carboxylic acid N′-(5-trifluoromethyl-pyridin-2-yl)-hydrazide]
9 | 5600 nM | CCN(CC)C(=O)c1ccc(C)c(Oc2ccc(C(=O)NNc3cc(C)c4c(C)nn(C)c4n3)o2)c1 [Example H1, N,N-diethyl-4-methyl-3-[(5-{[2-(1,3,4-trimethyl-1H-pyrazolo[3,4-b]pyridin-6-yl)hydrazino]carbonyl}-2-furyl)oxy]benzamide]
10 | 630 nM | CC(=O)N1CCC(C)(C)c2cc(Oc3ccc(C(=O)NNc4cc(C)c5c(C)nn(C)c5n4)o3)c(Cl)cc21 [Example I1, 5-(1-Acetyl-7-chloro-4,4-dimethyl-1,2,3,4-tetrahydro-quinolin-6-yloxy)-furan-2-carboxylic acid N′-(1,3,4-trimethyl-1H-pyrazolo[3,4-b]pyridin-6-yl)-hydrazide]
11 | 980 nM | Cc1ccccc1Oc1ccc(C(=O)NNc2cc(C)c3c(C)nn(C)c3n2)o1 [Example I4, 5-(2-Methylphenoxy)-N′-(1,3,4-trimethyl-1H-pyrazolo[3 ,4-b]pyridin-6-yl)-2-furohydrazide]
12 | 40 nM | Cc1cc2c(cc1Oc1ccc(C(=O)NNc3nc(N)nc(C4CC4)n3)o1)C(C)(C)CC2 [Example I13, N′-(4-Amino-6-cyclopropyl-1,3,5-triazin-2-yl)-5-[(3,3,6-trimethyl-2,3-dihydro-1H-inden-5-yl)oxy]-2-furohydrazide]
13 | 225 nM | Cc1cc2c(cc1Oc1ccc(C(=O)NNc3ccc(S(N)(=O)=O)cc3)o1)C(C)(C)CC2 [Example I14, 4-(2-{5-[(3,3,6-Trimethyl-2,3-dihydro-1H-inden-5-yl)oxy]-2-furoyl}hydrazino)benzenesulfonamide]
14 | 630 nM | CC(=O)N(C)c1ccc(C)c(Oc2ccc(C(=O)NNc3cc(C)c4c(C)nn(C)c4n3)o2)c1 [Example I30, N-Methyl-N-(4-methyl-3-{5-[N′-(1,3,4-trimethyl-1H-pyrazolo[3,4-b]pyridin-6-yl)-hydrazinocarbonyl]-furan-2-yloxy}-phenyl)-acetamide]
15 | 400 nM | Cc1cc(C)c(Cc2ccc(C(=O)NNc3cc(C)c4c(C)nn(C)c4n3)o2)c(C)c1 [Example J3, 5-(Mesitylmethyl)-N′-(1,3,4-trimethyl-1H-pyrazolo[3,4-b]pyridin-6-yl)-2-furohydrazide]
16 | 1400 nM | Cc1c(C)c(C)c(Cc2ccc(C(=O)NNc3cc(C)c4c(C)nn(C)c4n3)o2)c(C)c1C [Example J5, 5-(2,3,4,5,6-Pentamethylbenzyl)-N′-(1,3,4-trimethyl-1H-pyrazolo[3,4-b]pyridin-6-yl)-2-furohydrazide]
17 | 16100 nM | COc1ccc(OC)c(Cc2ccc(C(=O)NNc3cc(C)c4c(C)nn(C)c4n3)o2)c1 [Example J6, 5-(2,5-Dimethoxy-benzyl)-furan-2-carboxylic acid N′-(1,3,4-trimethyl-1H-pyrazolo[3,4-b]pyridin-6-yl)-hydrazide]
18 | 3890 nM | COc1cc(Cc2ccc(C(=O)NNc3cc(C)c4c(C)nn(C)c4n3)o2)c(OC)c(OC)c1 [Example J8, 5-(2,3,5-trimethoxybenzyl)-N′-(1,3,4-trimethyl-1H-pyrazolo[3,4-b]pyridin-6-yl)-2-furohydrazide]
19 | 4770 nM | COc1ccc(OC)c(OC)c1Cc1ccc(C(=O)NNc2cc(C)c3c(C)nn(C)c3n2)o1 [Example J9, 5-(2,3,6-trimethoxybenzyl)-N′-(1,3,4-trimethyl-1H-pyrazolo[3,4-beta]pyridin-6-yl)-2-furohydrazide]
20 | 1690 nM | COc1cc(OC)c(Cc2ccc(C(=O)NNc3cc(C)c4c(C)nn(C)c4n3)o2)c(OC)c1 [Example J10, 5-(2,4,6-trimethoxybenzyl)-N-(1,3,4-trimethyl-1H-pyrazolo[3,4-b]pyridin-6-yl)-2-furohydrazide]
21 | > 10000 nM | CCC(C)(C)c1ccc(OC)c(Cc2ccc(C(=O)NNc3cc(C)c4c(C)nn(C)c4n3)o2)c1 [Example J13, 5-[2-Methoxy-5-(tert-pentyl)benzyl]-N′-(1,3,4-trimethyl-1H-pyrazolo[3,4-b]pyridin-6-yl)-2-furohydrazide]
22 | > 10000 nM | COc1cc(OC)c(OC)cc1Cc1ccc(C(=O)NNc2cc(C)c3c(C)nn(C)c3n2)o1 [Example J14, 5-(2,4,5-trimethoxybenzyl)-N-(1,3,4-trimethyl-1H-pyrazolo[3,4-b]pyridin-6-yl)-2-furohydrazide]
23 | 610 nM | Cc1ccc(C)c(Cc2ccc(C(=O)NNc3cc(C)c4c(C)nn(C)c4n3)o2)c1 [Example J17]
24 | 1410 nM | CCN(CC)C(=O)C1(c2ccc(C)c(Cc3ccc(C(=O)NNc4cc(C)c5c(C)nn(C)c5n4)o3)c2)CC1 [Example J20, N,N-diethyl-1-{4-methyl-3-[(5-{[2-(1,3,4-trimethyl-1H-pyrazolo[3,4-b]pyridin-6-yl)hydrazino]carbonyl}-2-furyl)methyl]phenyl} cyclopropanecarboxamide]
25 | ≥ 10000 nM | Cc1cc(O)ccc1Cc1ccc(C(=O)NNc2cc(C)c3c(C)nn(C)c3n2)o1 [Example J21, 5-(4-Hydroxy-2-methylbenzyl)-N′-(1,3,4-trimethyl-1H-pyrazolo[3,4-b]pyridin-6-yl)-2-furohydrazide]

From patent US6903132B2, “Non-peptide GnRH agents, pharmaceutical compositions and methods for their use” (Agouron Pharmaceuticals, Inc., priority 2002, dated 2005)
